Reference: paper PMC6934184, “Selective DNA-PKcs inhibition extends the therapeutic index of localized radiotherapy and chemotherapy” (The Journal of Clinical Investigation, 2019)

Molecular target: T1, MINK1 (Homo sapiens, UniProt Q8N4C8)
T1 construct: purchased Thermo Fisher Scientific (Life Technologies) SelectScreen
Test: SelectScreen Z'LYTE
Format: biochemical
Outline: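 NU5455 was profiled across the SelectScreen Broad panel of kinase activity and binding assays. Z'LYTE reactions such as CSF1R ran at apparent Km ATP, while the Adapta CAMK1 assay used ATP listed as 10. Values are given as percent.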

T1 sequence (Q8N4C8 whole entry): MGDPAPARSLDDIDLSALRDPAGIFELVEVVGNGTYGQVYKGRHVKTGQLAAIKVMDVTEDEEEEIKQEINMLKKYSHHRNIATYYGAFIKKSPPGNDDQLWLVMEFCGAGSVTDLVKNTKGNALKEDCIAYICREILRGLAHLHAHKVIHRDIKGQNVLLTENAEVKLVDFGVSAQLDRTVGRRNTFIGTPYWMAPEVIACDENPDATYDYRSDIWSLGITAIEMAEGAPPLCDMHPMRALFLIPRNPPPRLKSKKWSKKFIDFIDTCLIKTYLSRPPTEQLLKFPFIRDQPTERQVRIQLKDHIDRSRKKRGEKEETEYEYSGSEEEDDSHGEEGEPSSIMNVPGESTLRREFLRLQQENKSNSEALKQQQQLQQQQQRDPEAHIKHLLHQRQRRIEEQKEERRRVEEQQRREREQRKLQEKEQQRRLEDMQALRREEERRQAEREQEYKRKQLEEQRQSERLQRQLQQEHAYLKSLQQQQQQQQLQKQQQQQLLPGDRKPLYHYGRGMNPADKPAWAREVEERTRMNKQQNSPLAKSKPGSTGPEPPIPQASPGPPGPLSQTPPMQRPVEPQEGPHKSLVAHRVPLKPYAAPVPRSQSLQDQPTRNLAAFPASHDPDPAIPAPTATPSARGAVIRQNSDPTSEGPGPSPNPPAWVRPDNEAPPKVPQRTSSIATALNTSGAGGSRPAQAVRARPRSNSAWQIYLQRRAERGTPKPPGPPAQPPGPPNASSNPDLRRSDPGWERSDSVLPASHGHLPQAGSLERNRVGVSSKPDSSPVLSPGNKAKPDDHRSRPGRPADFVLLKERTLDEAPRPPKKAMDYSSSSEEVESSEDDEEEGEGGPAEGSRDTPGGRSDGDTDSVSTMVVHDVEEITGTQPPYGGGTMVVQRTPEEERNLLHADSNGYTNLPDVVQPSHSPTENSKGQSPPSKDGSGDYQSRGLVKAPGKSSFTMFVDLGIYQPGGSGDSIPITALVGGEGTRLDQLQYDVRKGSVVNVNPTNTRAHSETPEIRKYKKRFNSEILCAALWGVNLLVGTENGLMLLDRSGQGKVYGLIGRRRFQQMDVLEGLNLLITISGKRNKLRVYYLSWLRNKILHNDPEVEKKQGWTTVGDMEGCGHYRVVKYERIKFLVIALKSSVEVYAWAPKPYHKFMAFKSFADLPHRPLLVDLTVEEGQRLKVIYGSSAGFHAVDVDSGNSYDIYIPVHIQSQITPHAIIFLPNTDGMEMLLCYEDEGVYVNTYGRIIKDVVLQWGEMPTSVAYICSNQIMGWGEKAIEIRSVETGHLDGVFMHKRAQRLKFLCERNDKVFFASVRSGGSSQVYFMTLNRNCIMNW

Compound: CN(C(=O)CN1CCOCC1)c1ccc2sc3c(-c4cccc5c(=O)cc(N6CC7CCC(C6)O7)oc45)cccc3c2c1 [NU5455]
- inhibition at 1 µM: 4.6%
